Laboratory results from publication PMC7571187, “Novel Acetylcholinesterase Inhibitors Based on Uracil Moiety for Possible Treatment of Alzheimer Disease” (Molecules, 2020).

Legend:
[1] = molecular target: T1, hBChE (BChE from human plasma; serum hBChE) (Homo sapiens, UniProt P06276); test: Ellman assay, […] nm; type: biochemical
T1 construct: native, commercial from human plasma / serum (Sigma-Aldrich)

[2] = molecular target: T2, hAChE (recombinant human AChE; AChE from human erythrocytes in Table 1) (Homo sapiens, UniProt P22303); test: Ellman assay, […] nm; type: biochemical
T2 construct: commercial recombinant human AChE (Sigma-Aldrich) per methods
T2 sequence (P22303 32-614): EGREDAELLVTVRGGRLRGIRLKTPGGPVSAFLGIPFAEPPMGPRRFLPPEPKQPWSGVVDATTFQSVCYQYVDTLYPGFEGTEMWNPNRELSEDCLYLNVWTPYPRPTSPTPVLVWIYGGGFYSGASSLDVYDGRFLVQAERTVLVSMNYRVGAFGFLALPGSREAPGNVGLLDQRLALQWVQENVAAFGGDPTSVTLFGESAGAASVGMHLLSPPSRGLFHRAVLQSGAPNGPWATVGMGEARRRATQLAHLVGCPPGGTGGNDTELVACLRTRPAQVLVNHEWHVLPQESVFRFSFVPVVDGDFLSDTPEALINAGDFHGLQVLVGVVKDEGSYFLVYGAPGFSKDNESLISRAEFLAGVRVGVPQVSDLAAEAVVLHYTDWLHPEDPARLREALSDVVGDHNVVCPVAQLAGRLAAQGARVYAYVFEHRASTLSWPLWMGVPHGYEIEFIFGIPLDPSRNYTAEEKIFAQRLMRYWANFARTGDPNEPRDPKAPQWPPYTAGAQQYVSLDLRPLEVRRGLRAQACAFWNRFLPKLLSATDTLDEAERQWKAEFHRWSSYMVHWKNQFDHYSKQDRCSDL

T1 sequence (P06276 29-602): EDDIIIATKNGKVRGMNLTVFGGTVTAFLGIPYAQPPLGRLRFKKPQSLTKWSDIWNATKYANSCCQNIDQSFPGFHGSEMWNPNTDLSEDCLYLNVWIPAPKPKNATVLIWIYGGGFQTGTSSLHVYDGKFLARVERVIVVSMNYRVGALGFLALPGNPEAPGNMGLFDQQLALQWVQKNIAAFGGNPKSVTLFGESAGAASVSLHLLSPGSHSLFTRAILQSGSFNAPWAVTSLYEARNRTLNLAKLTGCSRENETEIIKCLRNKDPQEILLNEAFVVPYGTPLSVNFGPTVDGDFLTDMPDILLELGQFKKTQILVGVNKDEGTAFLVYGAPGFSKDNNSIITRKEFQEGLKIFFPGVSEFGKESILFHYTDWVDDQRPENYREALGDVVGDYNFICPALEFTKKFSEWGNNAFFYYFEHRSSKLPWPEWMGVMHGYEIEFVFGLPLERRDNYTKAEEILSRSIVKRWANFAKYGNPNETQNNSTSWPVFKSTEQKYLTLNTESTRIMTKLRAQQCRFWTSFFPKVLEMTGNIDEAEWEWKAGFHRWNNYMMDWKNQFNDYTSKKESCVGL

| SMILES | IC50 [1] [nM] | IC50 [2] [nM] |
| --- | --- | --- |
| CCN(CCCCn1c(C)cc(=O)n(CCCCN(CC)Cc2ccccc2C#N)c1=O)Cc1ccccc1C#N [2a, 1,3-bis[4-(o-Nitrilebenzylethylamino)butyl]-6-methyluracil] | 65000 | 7 ± 0.5 |
| CCN(CCCCn1c(=O)c2ccccc2n(CCCCN(CC)Cc2ccccc2C#N)c1=O)Cc1ccccc1C#N [4a, 1,3-bis[4-(o-Nitrilebenzylethylamino)butyl]-quinazoline-2,4-dione] | 2620 ± 200 | 5520 ± 400 |
| Cc1cc(=O)n(CCCCCN=Cc2ccccc2C#N)c(=O)n1CCCCCN=Cc1ccccc1C#N [compound 13, 1,3-bis[5-(o-Nitrilebenzyl)aldiminopentyl]-6-methyluracil] | 2160 ± 150 | 2320 ± 170 |
| Cc1cc(=O)n(CCCCCNCc2ccccc2C#N)c(=O)n1CCCCCNCc1ccccc1C#N [compound 3, 1,3-bis[5-(o-Nitrilebenzylamino)pentyl]-6-methyluracil] | 1800 ± 170 | 480 ± 30 |
